According to article PMC12214007, “CARF-dependent preferential RNA cleavage by Csm6 increases drug susceptibility of mycobacteria” (Nucleic Acids Research, 2025):

Molecular target: Csm6 (Mtb Csm6) (Mycobacterium tuberculosis, UniProt P71635)
Sequence (P71635 34-415): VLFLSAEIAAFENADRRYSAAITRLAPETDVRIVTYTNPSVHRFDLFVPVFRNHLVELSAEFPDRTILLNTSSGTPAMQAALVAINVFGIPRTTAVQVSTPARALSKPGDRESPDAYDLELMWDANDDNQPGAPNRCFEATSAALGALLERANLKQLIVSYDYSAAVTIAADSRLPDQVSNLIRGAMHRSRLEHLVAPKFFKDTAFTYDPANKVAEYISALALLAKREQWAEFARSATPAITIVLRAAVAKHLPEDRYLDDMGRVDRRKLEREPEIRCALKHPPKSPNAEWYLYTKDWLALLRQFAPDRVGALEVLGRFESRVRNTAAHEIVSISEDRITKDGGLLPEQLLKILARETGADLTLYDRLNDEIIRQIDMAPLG

Structure (SMILES): Nc1ncnc2c1ncn2[C@@H]1O[C@@H]2COP(=O)(O)O[C@H]3[C@@H](O)[C@H](n4cnc5c(N)ncnc54)O[C@@H]3COP(=O)(O)O[C@H]3[C@@H](O)[C@H](n4cnc5c(N)ncnc54)O[C@@H]3COP(=O)(O)O[C@H]3[C@@H](O)[C@H](n4cnc5c(N)ncnc54)O[C@@H]3COP(=O)(O)O[C@H]3[C@@H](O)[C@H](n4cnc5c(N)ncnc54)O[C@@H]3COP(=O)(O)O[C@H]3[C@@H](O)[C@H](n4cnc5c(N)ncnc54)O[C@@H]3COP(=O)(O)O[C@H]2[C@H]1O [cA6, cyclic hexa-adenylate]
- gel-based cleavage assay of Cy5-labelled 24 nt ssRNA: the presence of cA6 significantly enhances the nuclease activity of Csm6
